Reference: patent publication US20230165865A1, “HETEROARYLDIHYDROPYRIMIDINE DERIVATIVES AND METHODS OF TREATING HEPATITIS B INFECTIONS” (Janssen Pharmaceutica NV, priority 2018, published 2023)

Legend:
[1] = Metabolic stability of test compound in human hepatocyte cell; format: in vitro ADME; settings: cryopreserved human hepatocytes (suspension), human hepatocytes; for half-life at 1 uM: 0-120 min, read-out: T½; for CLint scaled at 1 uM: scale-up intrinsic clearance, scaling factor 2544.3, read-out: Clint (liver)
Description: (§1) • 1. The cryopreserved human hepatocytes cells were thawed in 37° C. water bath and diluted with pre-warmed incubation medium to a working cell density of 1×10^6 viable cells/mL. • 2. The 198 μL pre-warmed hepatocyte suspensions were spiked with 2 μL of 100 μM compound or reference compound(Verapamil) at a final concentration of 1.0 μM in a 96-well plate. The plate was incubated at 37° C., 900 rpm. All incubations will be performed in singlet. • 3. 25 μL aliquots of well contents were collected at time points of 0, 15, 30, 60, 90 and 120 minutes. The reactions were stopped by the addition of 6-fold volumes of cold acetonitrile with internal standards. • 4. After centrifugation for 25 minutes at 3,220 g. Aliquot of 100 μL of the supernatant was mixed with 100 μL of ultra-pure H2O and then used for LC-MS/MS analysis.
(§2) All calculations were carried out using Microsoft Excel. Peak areas were determined from extracted ion chromatograms. Determine the in vitro half-life (t1/2) of parent compound by regression analysis of the percent parent disappearance vs. time curve.
(§3) The in vitro half-life (in vitro t1/2) is determined from the slope value k:
(§4) Conversion of the in vitro t1/2(in min) into the in vitro intrinsic clearance (in vitro CLint, in μL/min/10^6 cells) is done using the following equation:
(§5) V=incubation volume (0.2 mL);
(§6) N=number of hepatocytes per well (0.2×10^6 cells).
(§7) Conversion of the in vitro t1/2(in min) into the scale-up intrinsic clearance (CLint(liver), in mL/min/kg) was done using the following equation:
(§8) CLint(liver)=kV/N×scaling factor

[2] = tested on: cryopreserved human hepatocytes; assay: Cell viability assessment in CYP induction study (CellTiter-Fluor); format: cell-based; settings: donor 1, 10 μM, 72 hours
Description: Preparation and Plating of Human Hepatocytes • 1. The cryopreserved human hepatocytes were thawed in 37° C. water bath and diluted by plating medium to a seeding density of 0.55×10^6 cells/mL. • 2. Transfer 100 μL to each well of collagen I coated 96-well plate. Place plate(s) in incubator and incubate at 37° C. for 4-6 hours. • 3. After incubation, observe cell morphology, agitate plate(s) to loosen debris, and replace medium. Place plate in incubator and incubate for 18 hours.
Incubation with Test Compound(s) • 1. Prepare dilute test compound and positive control inducers with 37° C. prepared incubation medium to respective working concentrations (Table 11). Final concentration of DMSO in the treatment group will be 0.1%. Prepare 25 mM chlorpromazine in DMSO and dilute 1000-fold with incubation medium as a cytotoxicity control.
• 2. Remove the Hepatocyte plate from the incubator. Observe cell morphology. Replace the medium in the appropriate wells with 125 μL of the toxicity controls, DMSO controls, inducers, or test article solutions, each in triplicate. • 3. After 24 hours and 48 hours, remove the Hepatocyte plate from the incubator and observe cell morphology. Renew the medium with test articles that freshly diluted from DMSO stocks. […]
After 72 hours of treatment, warm the incubation medium to 37° C. […] Cell viability was assessed by CellTiter-Fluor™ Cell Viability Assay kit. […]

HBV = assay: Anti-viral assay in HepG2.2.15 cells: anti-HBV activity, HBV DNA in culture medium by qPCR; format: cell-based; settings: HepG2.2.15 cells, 6 days treatment, HBV DNA by qPCR; read-out: EC50
In short: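 Cells in 2% FBS medium treated 6 days, compound and medium refreshed at day 3; 8-point 1:3 dilutions in triplicate, top 10 or 1 uM (antiviral) and 100 uM (cytotoxicity). Extracellular viral DNA quantified by qPCR, giving EC50 and CC50.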

[3] = Cytotoxicity determination in HepG2.2.15 cells (CCK-8 assay); format: cell-based; settings: human, 6 days treatment, CCK-8, highest concentration 100 uM
In short: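 HepG2.2.15 cells (5,000/well, 2% FBS medium) were treated for 6 days, with medium and compound refreshed at day 3. Dosing was an 8-point 1:3 series from 100 uM, in triplicate. Viability was measured by CCK-8 after 2.5 h at 37 °C (A450, 630 nm reference), and CC50 was calculated.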

human hepatocytes = assay: Metabolic stability of test compound in human hepatocyte cell; format: in vitro ADME; settings: comparing with reference 1 and reference 2
Description: as §1, §2, §3, §4, §5, §6, §7, §8

SMILES | half-life at 1 uM [1] [h] | CLint scaled at 1 uM [1] [mL/min/kg] | Cell viability [2] [%] | EC50 (HBV) [µM] | CC50 at 6 days [3] [µM] | metabolic stability in human hepatocyte cells, in words (human hepatocytes)
CCOC(=O)C1=C(CN2CCN3C(=O)N(CC(C)(C)C(=O)O)C[C@@H]3C2)NC(c2nccs2)=N[C@H]1c1cccc(F)c1C [Reference 2, reference compound] | 2.45 | 12 | 117 | – | – | –
CCOC(=O)C1=C(CN2CCN3C(=S)N(CC(C)(C)C(=O)O)CC3C2)NC(c2nccs2)=N[C@H]1c1cccc(F)c1C (single isomer, unassigned) [Compound 1A] | 3.82 | 7.7 | 95 | 0.0063 | 22.5 | improved metabolic stability
